# Data reported in PMC8125528 (Molecules, 2021).
# pIC50: −log10 of the molar value. Like-named read-outs stand apart in the source and are kept apart here.
# Key:
# MCF-7 cells = test: MTT antiproliferative assay, MCF-7; format: cell-based; conditions: for pIC50: Homo sapiens, MCF7, breast MCF-7 cells, 72 h, MTT assay, 0.1-100 µM, read-out: Estimated IC50, MCF-7; for Selectivity index, MCF-7: ratio of IC50 in NHDF to IC50 in MCF-7
# Method: (§1) Each experiment was performed in quadruplicate and independently repeated.
# [1] = test system: normal human dermal fibroblasts (NHDF); test: MTT antiproliferative assay, NHDF; format: cell-based; conditions: normal fibroblast NHDF cells, 72 h, 0.1-100 µM, read-out: Estimated IC50, NHDF
# Method: as §1
# Caco-2 cells = test: cells; conditions: Homo sapiens, Caco-2, 72 h, read-out: Estimated IC50, Caco-2
# Method: (§2) The antiproliferative effect of compounds was evaluated by the 3-(4,5-dimethylthiazol-2-yl)-2,5-diphenyltetrazolium bromide (MTT; Sigma-Aldrich, St Louis, MO, USA) assay in MCF-7, T47-D, LNCaP, HepaRG, Caco-2 and NHDF cells. After reaching near confluence, cells were trypsinized and counted with a hemocytometer by means of the trypan-blue exclusion of dead cells. Then, 100 µL of cell suspension (2 × 10^4 cells/mL) was seeded in 96-well culture plates and left to adhere and growth during 48 h. […] Afterward, MTT containing medium was removed and formazan crystals were dissolved in DMSO. Absorbance was measured at 570 nm using a microplate reader Bio-rad Xmark spectrophotometer. After background subtraction, cell proliferation values were expressed as percentage relatively to the absorbance determined in negative control cells. Untreated cells were used as the negative control and the clinical drug 5-fluorouracil (5-FU) was used as positive control. Each experiment was performed in quadruplicate and independently repeated.
# (§3) Data were expressed as mean ± standard deviation (SD). t-Student test (two groups) and one-way ANOVA (three groups) were used followed by Bonferroni post hoc tests to determine statistically significant differences among the means.
# HepaRG cells = test: MTT antiproliferative assay, HepaRG; format: cell-based; conditions: for pIC50: Homo sapiens, liver HepaRG cells, 72 h, MTT assay, 0.1-100 µM, read-out: Estimated IC50, HepaRG; for Selectivity index, HepaRG: ratio of IC50 in NHDF to IC50 in HepaRG
# Method: as §1
# T47-D cells = test: MTT antiproliferative assay, T47-D; format: cell-based; conditions: for pIC50: Homo sapiens, T47D, breast T47-D cells, 72 h, MTT assay, 0.1-100 µM, read-out: Estimated IC50, T47-D; for Selectivity index, T47-D: ratio of IC50 in NHDF to IC50 in T47-D
# Method: as §1
# LNCaP cells [2] = test: Cell cycle distribution of LNCaP cells by flow cytometry; format: cell-based; conditions: 50 µM, 24 h
# Method: After 24 h of treatment with compound 11 at 50 µM (6-well plates, 5 × 10^4 cells/mL), LNCaP cells were collected and washed with PBS and resuspended in 450 µL of a cold solution of 0.5% bovine serum albumin (BSA; Amresco, Solon, OH, USA) and 1 mM EDTA in PBS, followed by fixation with 70% EtOH and kept at −20 °C. Afterward, fixed cells were washed twice with PBS and resuspended in a solution of PI (50 µg/mL) prepared in 0.5% BSA and 1 mM EDTA in PBS and then incubated with Ribonuclease A from bovine pancreas at a final concentration of 0.5 µg/µL (solution in 50% glycerol, 10 mM Tris-HCl, pH 8; Sigma Aldrich, St Louis, MO, USA) for 15 min in the dark. For comparison, untreated cells were used as negative control and cells treated with 5-FU at 50 µM were used as positive control. Each experiment was performed in duplicate and independently repeated. A minimum of 10,000 events was acquired using BD Accuri Software and analysis was performed by Modfit software (Becton Dickinson, San Jose, CA, USA).
# LNCaP cells [3] = test: MTT antiproliferative assay, LNCaP; format: cell-based; conditions: for pIC50: Homo sapiens, prostate LNCaP cells, MTT assay, 0.1-100 µM, read-out: Estimated IC50, LNCaP; for Selectivity index, LNCaP: ratio of IC50 in NHDF to IC50 in LNCaP
# Method: as §1
# LNCaP cells [4] = test: LNCaP cell viability by flow cytometry after propidium iodide staining; format: cell-based; conditions: 50 µM, 24 h, PI flow cytometry
# Method: The analysis of LNCaP cells viability was performed by flow cytometry after staining with propidium iodide (PI) (solution of PI 1 mg/mL in 0.1% of sodium azide and water; Sigma Aldrich, St Louis, MO, USA). Briefly, 3 mL of cells suspension were seeded in 6-well plates (5 × 10^4 cells/mL) in complete culture medium. After 48 h they were treated with 50 µM of compound 11. Untreated cells were used as negative control and 5-FU (50 µM) was used as positive control. Each experiment was performed in duplicate and independently repeated. At the end of 24 h of incubation, the supernatant of each well was collected, cells were harvested by trypsinization and pooled with the supernatants. The resulting cell suspension was kept on ice, pelleted by centrifugation and resuspended in 400 µL of complete medium. Afterward, 395 µL of the cell suspension was transferred to a FACS tube and 5 µL of PI and 0.5 µL of ethylenediamine tetraacetic acid (EDTA, 0.123 M) were added. A minimum of 20,000 events was acquired using a BD Accuri C6 (San Jose, CA, USA) flow cytometer in the channels forward scatter (FSC), side scatter (SSC) and fluorescence channel-3 (FL3, for PI). Acquisition and analysis were performed with BD Accuri Software. […]
# in vitro = conditions: human, Caco-2
# Method: as §2, §3
# [5] = test system: MCF-7, T47D, LNCaP, HepaRG, Caco-2 and NHDF cell lines; test: MTT screening at 30 µM in six cell lines; format: cell-based; conditions: 72 h
# Method: as §1
# [6] = test system: estrogen-sensitive breast cancer T47-D cells (ER+); set-up: method as in doi:10.5802/crchim.17; conditions: previous study; cited from earlier work
# HepaRG cell cycle = test system: HepaRG cell cycle; set-up: method as in doi:10.5802/crchim.17; conditions: HepaRG cells; cited from earlier work
# LNCaP cells [7] = test: Fluorescence microscopy of LNCaP cells after Hoechst 33258 DNA staining; format: cell-based; conditions: 50 µM, 24 h
# Method: Near-confluent LNCaP cells were seeded in a 6-well plate (5 × 10^4 cells/mL). After adherence and incubation for 24h with compound 11 (50 µM), the dye Hoechst 33,258 was added to the culture medium to achieve a final concentration of 1µg/mL. The cells were incubated for 15 min at 37 °C and were then photographed by means of a Nikon Eclipse microscope equipped with a fluorescence attachment containing the appropriate optical blocks and a QCapture CCD camera.
# [8] = test system: estrogen-sensitive breast cancer T47-D cells (ER+); test: E-screening (estrogenicity) assay in T47-D cells; format: cell-based; conditions: 0.001 and 0.01 µM, vs. negative control, MTT readout
# Method: After overnight incubation, the medium was replaced every 3 days with fresh phenol red free RPMI 1640 medium supplemented with 5% of dextran-coated charcoal-treated fetal calf serum (DCC-FCS) and containing compound 11 (0.1, 0.01 and 0.001 µM). […] Each experiment was performed in quadruplicate and independently repeated.
# 17β-HSD1 = conditions: at 10 μM; cited from earlier work
# uterine growth = test system: uterine growth; set-up: method as in PMID 10447965; conditions: ovariectomized rats; cited from earlier work
smiles,measurement,setting,value
"C[C@]12CC[C@@H]3c4ccc(O)cc4CC[C@H]3[C@@H]1CCC2=O [Compound 1, estrone, reference compound]",pIC50,MCF-7 cells,4.38
same,pIC50,[1],4.21
same,pIC50,Caco-2 cells,4.37
same,pIC50,HepaRG cells,4.53
"C[C@]12CC[C@@H]3c4ccc(O)cc4CC[C@H]3[C@@H]1CCC2=NO [Compound 2, 17-hydroxyiminoestra-1,3,5(10)-trien-3-ol]",pIC50,MCF-7 cells,4.57
same,"Selectivity index, MCF-7",MCF-7 cells,1.65
same,pIC50,T47-D cells,4.53
same,"Selectivity index, T47-D",T47-D cells,1.50
same,pIC50,[1],4.36
same,pIC50,HepaRG cells,4.77
same,"Selectivity index, HepaRG",HepaRG cells,2.59
"C[C@]12CC[C@@H]3c4cc([N+](=O)[O-])c(O)cc4CC[C@H]3[C@@H]1CCC2=NO [Compound 5, 17-hydroxyimino-2-nitroestra-1,3,5(10)-trien-3-ol]",pIC50,MCF-7 cells,4.78
same,pIC50,Caco-2 cells,4.73
same,pIC50,HepaRG cells,4.91
"O=c1[nH]cc(F)c(=O)[nH]1 [Compound 5-FU, 5-fluorouracil, reference compound]","Selectivity index, MCF-7",MCF-7 cells,2.11
same,Effect on cell cycle distribution,LNCaP cells [2],not able to pass through to the S and G2/M phases
same,pIC50,T47-D cells,6.27
same,"Selectivity index, T47-D",T47-D cells,6.69
same,pIC50,LNCaP cells [3]; 72 h,5.11
same,"Selectivity index, LNCaP",LNCaP cells [3],0.46
same,pIC50,[1],5.44
same,Reduction in cell viability,LNCaP cells [4],12%
same,selectivity ratio at 72 h,in vitro,2.76
same,pIC50,Caco-2 cells,5.88
same,pIC50,HepaRG cells,5.75
same,"Selectivity index, HepaRG",HepaRG cells,2.03
"C[C@]12CC[C@@H]3c4cc([N+](=O)[O-])c(O)c([N+](=O)[O-])c4CC[C@H]3[C@@H]1CCC2=NO [Compound 6, 17-hydroxyimino-2,4-dinitroestra-1,3,5(10)-trien-3-ol]",Cytotoxic/antiproliferative effect in screening,[5],low antiproliferative activity
"C[C@]12CC=C3c4ccc(O)cc4CCC3C1CCC2=O (stereo partly drawn) [Compound 8, Δ^9,11-E1]",Proliferative/estrogenic effect on T47-D cells,[6],stimulated the proliferation of T47-D cells
same,Effect on cell cycle,HepaRG cell cycle,induced an arrest at G0/G1
"C[C@]12CC[C@@H]3c4cc(I)c(O)c(I)c4CC[C@H]3[C@@H]1CCC2=NO [Compound 10, 17-hydroxyimino-2,4-diiodooestra-1,3,5(10)-trien-3-ol]",pIC50,HepaRG cells,4.55
"C[C@]12CC=C3c4ccc(O)cc4CCC3C1CCC2=NO (stereo partly drawn) [Compound 11, 17-hydroxyimino-3-hydroxyestra-1,3,5(10),9(11)-tetraen-3-ol]",pIC50,MCF-7 cells,4.59
same,"Selectivity index, MCF-7",MCF-7 cells,1.20
same,"Nuclei morphology (Hoechst 33,258)",LNCaP cells [7],"condensed DNA, typical of prophase, and a small proportion of condensed and fragmented nuclei, typical of apoptosis"
same,Effect on cell cycle distribution,LNCaP cells [2],induced a G2/M cell cycle arrest
same,pIC50,T47-D cells,4.36
same,"Selectivity index, T47-D",T47-D cells,0.71
same,pIC50,LNCaP cells [3]; 72 h,5.44
same,Reduction of cell proliferation in screening,"LNCaP cells [3]; LNCaP cells, 30 µM, 72 h, MTT",significant reduction of LNCaP cells proliferation
same,"Selectivity index, LNCaP",LNCaP cells [3],8.59
same,Proliferative/estrogenic effect on T47-D cells,[8],stimulated the cell proliferation
same,pIC50,[1],4.51
same,Reduction in cell viability,LNCaP cells [4],11%
same,selectivity ratio at 72 h,in vitro,1.27
same,pIC50,Caco-2 cells,4.61
same,pIC50,HepaRG cells,4.74
same,"Selectivity index, HepaRG",HepaRG cells,1.68
"C[C@]12CCC3c4cc(Br)c(O)c(Br)c4CCC3C1CCC2=NO (stereo partly drawn) [Compound 12, 17-hydroxyimino-2,4-dibromo-3-hydroxyestra-1,3,5(10)-trien-3-ol]",pIC50,HepaRG cells,4.66
CC12CCC3c4ccc(O)cc4CCC3C1CC(=NO)C2=O (stereo not drawn) [Compound 16-oxime],% inhibition of 17β-HSD1,17β-HSD1,96%
"C[C@]12CC[C@@H]3c4ccc(O)cc4CC[C@H]3[C@@H]1CC[C@@H]2O [Compound E2, 17β-estradiol, reference compound]",Proliferative/estrogenic effect on T47-D cells,[8],stimulated the cell proliferation
"C[C@]12CC[C@@H]3c4ccc(OS(N)(=O)=O)cc4CC[C@H]3[C@@H]1CCC2=O [EMATE, estrone sulfamate]",Stimulatory effect on the uterine growth,uterine growth,0.11 g
"C[C@]12CCC3c4ccc(OS(N)(=O)=O)cc4CCC3C1CC/C2=N\O (stereo partly drawn) [OMATE, estrone oxime sulfamate]",Stimulatory effect on the uterine growth,uterine growth,0.15 g
